What was measured:
[1] = tested on: murine squamous carcinoma cell line (SCCVII); experiment: SCCVII floor-of-mouth tumor growth, oral rhLF and/or cisplatin; type: in vivo, C3H mice; details: in combination rhLF 200 mg/Kg oral days 5-12
Experimental: A murine squamous carcinoma cell line (SCCVII) was injected into the floor of the mouth through the neck skin of immunocompetent C3H mice (Day 0). […] Tumors were measured in three dimensions with calipers.
Tumor-bearing mice were randomized into a control group and seven groups receiving rhLF and/or cisplatin. RhLF (4 mg; 200 mg/Kg) was administered once daily by oral gavage for 8 days on days 5 through 12. Cisplatin was administered as a single dose of 5 mg/Kg given intraperitoneally either at the start of rhLF (day 5), in the middle (day 8) or at the end (day 12) of rhLF therapy. Animals were sacrificed on day 12 post-implantation and the residual tumor masses were measured and processed for later additional analyses.
A murine squamous carcinoma cell line (SCCVII) was injected into the floor of the mouth through the neck skin of immunocompetent C3H mice (Day 0) as described in Example 6. On Day 5 days after initial implantation, tumors were measured for the baseline, then treated with either cisplatin (Day 8, i.p., 5 mg/kg) alone or cisplatin plus three doses of oral rhLF (daily by gavage for 7-8 days on days 5 through 11/12). Animals were sacrificed on Day 11/12 and tumors measured.

[2] = tested on: murine squamous carcinoma cell line (SCCVII); experiment: SCCVII floor-of-mouth tumor growth, docetaxel with or without oral rhLF; type: in vivo, C3H mice; details: docetaxel i.v. bolus 31.3 mg/kg Day 8, in combination rhLF 200 mg/kg oral days 5 to 12
Experimental: A murine squamous carcinoma cell line (SCCVII) was injected into the floor of the mouth through the neck skin of immunocompetent C3H mice (Day 0) as described in Example 7. On Day 5 after initial implantation, tumors were measured for the baseline, then treated with either oral placebo alone (once daily from days 5 to 12; 6 animals), placebo and docetaxel (i.v. bolus of 31.3 mg/kg docetaxel on Day 8; 9 animals), or docetaxel plus oral rhLF (200 mg/kg, administered once daily by gavage from days 5 to 12; 9 animals). Animals were sacrificed on Day 14 and tumors measured. Docetaxel alone caused an inhibition of tumor growth relative to placebo and the combination of rhLF and docetaxel induced a further growth inhibition.

SMILES: N.N.[Cl][Pt][Cl] [CP, Cisplatin]
- TGI (%) Relative to Placebo ([1]; cisplatin 5 mg/Kg i.p. on day 5): 68%
- TGI (%) Relative to Placebo ([1]; cisplatin 5 mg/Kg i.p. on day 8): 6%
- TGI (%) Relative to Placebo ([1]; cisplatin 5 mg/Kg i.p. on day 12): 42%
- TGI (%) Relative to Placebo ([1]; pooled cisplatin schedules (day 5, 8, 12)): 38%

SMILES: CC(=O)O[C@@]12CO[C@@H]1C[C@H](O)[C@@]1(C)C(=O)[C@H](O)C3=C(C)[C@@H](OC(=O)[C@H](O)[C@@H](NC(=O)OC(C)(C)C)c4ccccc4)C[C@@](O)([C@@H](OC(=O)c4ccccc4)[C@H]21)C3(C)C [Docetaxel]
- TGI (%) Relative to Placebo ([2]; Day 14): 59%
- Tumor Growth ([2]; measured Day 14): 2,103

— patent US20100137208A1, “INTRATUMORALLY ADMINISTERED LACTOFERRIN IN THE TREATMENT OF MALIGNANTNEOPLASMS AND OTHER HYPERPROLIFERATIVE DISEASES” (priority 2002, published 2010)
